Measurements reported in patent publication US20240368159A1, “HPK1 DEGRADERS, COMPOSITIONS COMPRISING THE HPK1 DEGRADER, AND METHODS OF USING THE SAME” (BIOFRONT LTD, priority 2021, published 2024).

Tests used:
HPK1 p-SLP-76 = HPK1 p-SLP-76 inhibition assay in human PBMC (HTRF); type: cell-based; details: 6 h compound, anti-CD3 stimulation 20 min
How it was run: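 Human PBMC starved overnight in 0.5% FBS, treated with compound 6 h at 37° C, then stimulated with anti-CD3 (10 ug/mL final) for 20 min. Lysates analysed for phospho-SLP76 by HTRF after overnight detection-antibody incubation at 25° C.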

HPK1 protein [1] = target: T1, HPK1 protein (Homo sapiens, UniProt Q92918); experiment: HPK1 protein degradation in human PBMC (western blot); type: cell-based; details: 18 h incubation
T1 construct: Frozen human PBMC were purchased from Shanghai OribioTech; host or cells: human PBMC
Experimental: HPK1 protein degradation in human PBMC: Frozen human PBMC were purchased from Shanghai OribioTech and recovered with culture medium (RMPI1640) prior to use. The cells were then incubated with a variety of concentrations of compound. After incubation for 18 h, the cells were collected and lysed. The protein concentration was determined by BCA protein assay kit from Thermo (23227). The HPK1 protein level was determined by western blots, using anti-human HPK1 polyclonal antibody from CST (4472S). Proteins were loaded into each well of the pre-casting gels and subjected to electrophoretic separation by SDS-PAGE. The protein resolved by SDS-PAGE were transferred to PVDF, blocked by 5% skim milk, and probed with anti-human HPK1 antibody or β-actin antibody from CST (3700S), using standard western blotting procedure.
T1 sequence (Q92918 whole entry): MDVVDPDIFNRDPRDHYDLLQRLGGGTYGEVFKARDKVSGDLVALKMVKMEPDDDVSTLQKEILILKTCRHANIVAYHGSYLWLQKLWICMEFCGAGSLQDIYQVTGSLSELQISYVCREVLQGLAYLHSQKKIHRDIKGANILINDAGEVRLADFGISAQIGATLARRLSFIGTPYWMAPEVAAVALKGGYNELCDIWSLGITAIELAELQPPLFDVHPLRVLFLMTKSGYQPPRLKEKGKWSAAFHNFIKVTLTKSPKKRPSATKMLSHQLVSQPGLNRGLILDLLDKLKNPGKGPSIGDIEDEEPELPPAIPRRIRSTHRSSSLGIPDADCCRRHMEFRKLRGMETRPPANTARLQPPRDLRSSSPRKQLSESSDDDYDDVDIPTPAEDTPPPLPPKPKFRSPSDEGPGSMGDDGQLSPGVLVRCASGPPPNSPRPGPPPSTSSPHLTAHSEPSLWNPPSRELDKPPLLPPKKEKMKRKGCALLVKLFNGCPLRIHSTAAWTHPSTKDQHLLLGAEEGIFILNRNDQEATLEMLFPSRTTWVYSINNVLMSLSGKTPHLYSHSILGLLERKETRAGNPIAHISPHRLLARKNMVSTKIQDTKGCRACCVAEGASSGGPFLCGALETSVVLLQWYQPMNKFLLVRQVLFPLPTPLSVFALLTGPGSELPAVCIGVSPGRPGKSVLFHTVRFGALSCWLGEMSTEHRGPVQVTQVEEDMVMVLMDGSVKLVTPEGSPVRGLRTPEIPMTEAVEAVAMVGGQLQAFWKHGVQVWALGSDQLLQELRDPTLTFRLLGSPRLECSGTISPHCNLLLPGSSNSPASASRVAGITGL

HPK1 protein [2] = target: T2, HPK1 protein (Mus musculus, UniProt P70218); experiment: HPK1 protein degradation in mouse pan T cell (western blot); type: cell-based; details: 18 h incubation
T2 construct: the CD3+ T cell population was isolated from spleenocytes of mice; endogenous in cells; host or cells: primary mouse splenic CD3+ (pan) T cells
T2 sequence (P70218 1-827): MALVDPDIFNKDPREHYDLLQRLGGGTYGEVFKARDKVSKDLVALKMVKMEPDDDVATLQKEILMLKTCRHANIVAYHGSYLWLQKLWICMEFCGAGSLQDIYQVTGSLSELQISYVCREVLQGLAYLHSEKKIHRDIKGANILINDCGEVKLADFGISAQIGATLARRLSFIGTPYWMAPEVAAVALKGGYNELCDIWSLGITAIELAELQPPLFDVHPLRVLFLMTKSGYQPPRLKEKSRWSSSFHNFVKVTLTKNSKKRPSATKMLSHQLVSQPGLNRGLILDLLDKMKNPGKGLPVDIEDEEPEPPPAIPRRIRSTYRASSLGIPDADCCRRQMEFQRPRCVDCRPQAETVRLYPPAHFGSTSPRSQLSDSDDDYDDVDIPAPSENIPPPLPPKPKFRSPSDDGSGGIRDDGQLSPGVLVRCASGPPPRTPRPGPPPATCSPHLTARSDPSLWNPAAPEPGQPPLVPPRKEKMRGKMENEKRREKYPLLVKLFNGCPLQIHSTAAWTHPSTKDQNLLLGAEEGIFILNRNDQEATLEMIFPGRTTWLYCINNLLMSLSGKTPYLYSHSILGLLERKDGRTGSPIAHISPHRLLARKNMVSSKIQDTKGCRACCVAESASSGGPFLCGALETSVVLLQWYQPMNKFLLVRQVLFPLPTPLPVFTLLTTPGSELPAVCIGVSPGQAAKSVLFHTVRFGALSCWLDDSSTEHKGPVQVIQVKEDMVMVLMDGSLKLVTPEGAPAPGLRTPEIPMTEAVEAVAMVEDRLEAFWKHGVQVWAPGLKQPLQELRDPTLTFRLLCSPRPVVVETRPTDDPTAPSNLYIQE
How it was run: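 CD3+ pan T cells were isolated from mouse splenocytes and incubated 18 h with a range of compound concentrations. Lysates were normalised by BCA and run on SDS-PAGE. HPK1 was detected by western blot with an anti-human HPK1 polyclonal antibody, with β-actin as loading control.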

HPK1 protein [3] = target: T3, HPK1 protein (Homo sapiens, UniProt Q92918); experiment: HPK1 enzyme inhibition assay (ADP-Glo); type: biochemical; details: MBP substrate, ATP, ADP-Glo readout
T3 construct: purchased Signal Chem M23-11G-10
T3 sequence (Q92918 1-346 limits assumed): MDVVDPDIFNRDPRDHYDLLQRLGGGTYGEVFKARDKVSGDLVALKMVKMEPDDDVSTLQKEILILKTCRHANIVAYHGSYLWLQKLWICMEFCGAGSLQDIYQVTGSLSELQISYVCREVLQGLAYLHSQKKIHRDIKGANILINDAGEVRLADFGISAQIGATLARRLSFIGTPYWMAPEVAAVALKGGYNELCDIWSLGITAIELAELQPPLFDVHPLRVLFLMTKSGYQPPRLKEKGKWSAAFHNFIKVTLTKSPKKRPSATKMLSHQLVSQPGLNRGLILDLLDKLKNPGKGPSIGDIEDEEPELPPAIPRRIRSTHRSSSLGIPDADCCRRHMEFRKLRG
How it was run: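 Recombinant human HPK1 preincubated with compound 60 min at 25 °C, then reaction with MBP (0.2 ug/ul, 2× stock) and ATP (20 μM, 2× stock) 60 min at 25 °C. ADP formed detected by ADP-Glo after ATP depletion and conversion to ATP; IC50 calculated from signal.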

[4] = system: IL-2 production in primary mouse CD3+ T cells; experiment: Cytokine measurement: IL-2 production in mouse CD3+ T cells (ELISA); type: cell-based; details: T-cell, plate bound anti-CD3, 40 hrs; for fold induction at 1 µM: 1 uM compound, read-out: IL-2 production Fold change (1 uM); for fold induction at 3 µM: 3 uM compound, read-out: IL-2 production Fold change (3 uM)
Experimental: Anti-CD3 Ab was used to provide signal 1 to stimulate mouse CD3+ T cells. Effect of compound stimulation on T cells was measure by IL2 ELISA. Briefly, anti-CD3 Ab was coated onto plates overnight. Isolated T cells from mouse splenocytes were incubated with plate bound CD3 in the presence and absence of compound for 40 hrs. After incubation, the supernatant was collected and IL2 level in the supernatant was determined by mouse IL2 ELISA kit.

Structure (SMILES)	IC50 (HPK1 p-SLP-76)	Dmax (HPK1 protein [1])	Dmax (HPK1 protein [2])	IC50 (HPK1 protein [3])	fold induction at 1 µM [4]	fold induction at 3 µM [4]
CCc1c[nH]c2ncc(-c3cccc(N4CCN(CCCOC5CCN(c6ccc7c(c6)C(=O)N(C6CCC(=O)NC6=O)C7=O)CC5)CC4=O)c3)c(Cl)c12 (stereo not shown) [Example 35, 5-(4-(3-(4-(3-(4-chloro-3-ethyl-1H-pyrrolo[2,3-b]pyridin-5-yl)phenyl)-3-oxopiperazin-1-yl)propoxy)piperidin-1-yl)-2-(2,6-dioxopiperidin-3-yl)isoindoline-1,3-dione]	300 to 3000 nM	90%	95%	10 to 100 nM		
O=C1CCC(N2C(=O)c3ccc(N4CCC(OCC(=O)N5CCN(c6cccc(-c7cnc8[nH]cc(CC(F)F)c8c7Cl)c6)C(=O)C5)CC4)cc3C2=O)C(=O)N1 (stereo not shown) [Example 36]	≤ 300 nM	94%	95%	10 to 100 nM	1.8	3.8
O=C1CCC(N2C(=O)c3cc(F)c(N4CCN(CCCN5CCN(c6cccc(-c7cnc8[nH]cc(C9CC9)c8c7Cl)c6)C(=O)C5)CC4)cc3C2=O)C(=O)N1 (stereo not shown) [Example 43]	300 to 3000 nM	94%	95%	100 to 1000 nM		
O=C1CCC(N2Cc3cc(C4CCN(CCCN5CCN(c6cccc(-c7cnc8[nH]cc(C9CC9)c8c7Cl)c6)C(=O)C5)CC4)ccc3C2=O)C(=O)N1 (stereo not shown) [Example 54, 3-(5-(1-(3-(4-(3-(4-chloro-3-cyclopropyl-1H-pyrrolo[2,3-b]pyridin-5-yl)phenyl)-3-oxopiperazin-1-yl)propyl)piperidin-4-yl)-1-oxoisoindolin-2-yl)piperidine-2,6-dione]	≤ 300 nM	83%	95%	≤ 10 nM		
O=C1CCC(N2Cc3cc(C4=CCN(CCCN5CCN(c6cccc(-c7cnc8[nH]cc(C9CC9)c8c7Cl)c6)C(=O)C5)CC4)ccc3C2=O)C(=O)N1 (stereo not shown) [Example 56, 3-(5-(1-(3-(4-(3-(4-chloro-3-cyclopropyl-1H-pyrrolo[2,3-b]pyridin-5-yl)phenyl)-3-oxopiperazin-1-yl)propyl)-1,2,3,6-tetrahydropyridin-4-yl)-1-oxoisoindolin-2-yl)piperidine-2,6-dione]	300 to 3000 nM	98%	95%	≤ 10 nM		
O=C1CCC(N2Cc3cc(N4CCN(CCCN5CCN(c6cccc(-c7cnc8[nH]cc(C9CC9)c8c7Cl)c6)C(=O)C5)CC4)ccc3C2=O)C(=O)N1 (stereo not shown) [Example 63, 3-(5-(4-(3-(4-(3-(4-chloro-3-cyclopropyl-1H-pyrrolo[2,3-b]pyridin-5-yl)phenyl)-3-oxopiperazin-1-yl)propyl)piperazin-1-yl)-1-oxoisoindolin-2-yl)piperidine-2,6-dione]	≤ 300 nM	90%		≤ 10 nM	2.1	2
O=C1CCC(Nc2ccc(C3CCN(CCCN4CCN(c5cccc(-c6cnc7[nH]cc(C8CC8)c7c6Cl)c5)C(=O)C4)CC3)cc2)C(=O)N1 (stereo not shown) [Example 78, 3-((4-(1-(3-(4-(3-(4-chloro-3-cyclopropyl-1H-pyrrolo[2,3-b]pyridin-5-yl)phenyl)-3-oxopiperazin-1-yl)propyl)piperidin-4-yl)phenyl)amino)piperidine-2,6-dione]	300 to 3000 nM	90%	88%	≤ 10 nM		
O=C1CCC(Nc2ccc(N3CCN(CCCN4CCN(c5cccc(-c6cnc7[nH]cc(C8CC8)c7c6Cl)c5)C(=O)C4)CC3)c(F)c2)C(=O)N1 (stereo not shown) [Example 79, 3-((4-(4-(3-(4-(3-(4-chloro-3-cyclopropyl-1H-pyrrolo[2,3-b]pyridin-5-yl)phenyl)-3-oxopiperazin-1-yl)propyl)piperazin-1-yl)-3-fluorophenyl)amino) piperidine-2,6-dione]	≤ 300 nM		97%	≤ 10 nM	2.6	< 0.5
O=C1CCC(N2C(=O)c3ccc(N4CCC(COC(=O)N5CCN(c6cccc(-c7cnc8[nH]cc(C9CC9)c8c7Cl)c6)C(=O)C5)CC4)cc3C2=O)C(=O)N1 (stereo not shown) [Example 88]	> 10000 nM			10 to 100 nM	2.3	2.4
O=C1CCC(N2C(=O)c3ccc(OCCC4CN(C(=O)N5CCN(c6cccc(-c7cnc8[nH]cc(C9CC9)c8c7Cl)c6)C(=O)C5)C4)cc3C2=O)C(=O)N1 (stereo not shown) [Example 95, 5-(2-(1-(4-(3-(4-chloro-3-cyclopropyl-1H-pyrrolo[2,3-b]pyridin-5-yl)phenyl)-3-oxopiperazine-1-carbonyl)azetidin-3-yl)ethoxy)-2-(2,6-dioxopiperidin-3-yl)isoindoline-1,3-dione]				10 to 100 nM	1.8	2.7
CCc1c[nH]c2ncc(-c3cccc(N4CCN(S(=O)(=O)CCCN5CCN(c6ccc7c(c6)C(=O)N(C6CCC(=O)NC6=O)C7=O)CC5)CC4=O)c3)c(Cl)c12 (stereo not shown) [Example 99, 5-(4-(3-((4-(3-(4-chloro-3-ethyl-1H-pyrrolo[2,3-b]pyridin-5-yl)phenyl)-3-oxopiperazin-1-yl)sulfonyl)propyl)piperazin-1-yl)-2-(2,6-dioxopiperidin-3-yl)isoindoline-1,3-dione]	≤ 300 nM	99%	90%	10 to 100 nM		
O=C1CCC(c2ccc(C3CCN(CCCS(=O)(=O)N4CCN(c5cccc(-c6cnc7[nH]cc(C8CC8)c7c6Cl)c5)C(=O)C4)CC3)cc2)C(=O)N1 (stereo not shown) [Example 102, 3-(4-(1-(3-((4-(3-(4-chloro-3-cyclopropyl-1H-pyrrolo[2,3-b]pyridin-5-yl)phenyl)-3-oxopiperazin-1-yl)sulfonyl)propyl)piperidin-4-yl)phenyl)piperidine-2,6-dione]	300 to 3000 nM			≤ 10 nM	2.9	2.6
O=C1CCC(N2Cc3cc(N4CCN(CCCS(=O)(=O)N5CCN(c6cccc(-c7cnc8[nH]cc(C9CC9)c8c7Cl)c6)C(=O)C5)CC4)ccc3C2=O)C(=O)N1 (stereo not shown) [Example 103, 3-(5-(4-(3-((4-(3-(4-chloro-3-cyclopropyl-1H-pyrrolo[2,3-b]pyridin-5-yl)phenyl)-3-oxopiperazin-1-yl)sulfonyl)propyl)piperazin-1-yl)-1-oxoisoindolin-2-yl)piperidine-2,6-dione]	≤ 300 nM			≤ 10 nM	2.1	2.8
